From US20060104978A1, “Methods and compositions for PDGF-C activation and inhibition” (LUDWIG INSTITUTE FOR CANCER RESEARCH, priority 2003, published 2006)

What was measured:
[1] = target: latent PDGF-DD (Homo sapiens, UniProt Q9GZP0); test: Cotransfection assay in COS-1 cells: protease plus full-length PDGF-D; format: cell-based; design: cotransfected with full-length PDGF-C (Li et al, 2000), full-length PDGF-D (Bergsten et al, 2001); expressed in transfected cells; host or cells: COS-1 cells; settings: COS-1 conditioned medium, immunoblot
From the text: A cotransfection assay was established to identify serine proteases able to cleave and activate latent PDGF-CC. Expression plasmids encoding the relevant enzymes and full-length PDGF-C were cotransfected into COS-1 cells, and aliquots of the conditioned media from the transfectants were subjected to SDS-PAGE and immunoblotting using antibodies to the growth factor domain of PDGF-C. […] As a specificity control, the ability of tPA and NT to use full-length PDGF-DD as the substrate in the cotransfection assay was analysed. […] One difference in the latter results, as compared with the results from the cotransfection assay, was that purified tPA generated a second intermediate species of 32 kDa using latent PDGF-CC as the substrate. […]
To test the endogenous expression of PDGF-CC, subconfluent AG1523 cells and primary fibroblast cultures were cultured in serum-free DMEM overnight. […] In the case of the primary cultures, total protein concentration was measured and normalized (Bradford, 1976). […] PDGF-C and PDGF-D were detected by immunoblotting using affinity-purified polyclonal rabbit antibodies against PDGF-C (Li et al, 2000) and PDGF-D (Bergsten et al, 2001), respectively. The His6-tagged proteins were detected using an anti-His monoclonal antibody (C-terminal, Invitrogen). tPA was detected using sheep polyclonal antibodies against human tPA (ab9030, Abcam).

[2] = system: tPA-deficient fibroblasts; test: WST-1 growth assay of primary fibroblasts in serum-free medium; format: cell-based, mouse; settings: 50 ng/ml added to serum-free culture medium, 24 hours
Description: It was observed that primary fibroblasts derived from tPA-deficient mice grew more slowly in culture than fibroblasts derived from wild-type animals, raising the possibility that activation of latent PDGF-CC by tPA generated autocrine and paracrine growth stimulatory loops for primary fibroblasts in culture. To analyze this effect, isolated wild-type and tPA-deficient fibroblasts were serum-starved overnight, and the growth of the cells during the next 24 hours was monitored using an enzyme-based viability assay (see Example 8, Materials and Methods).
(§1) To monitor cell growth, both the cell proliferation reagent WST-1 (Roche) and BrdU (Sigma) were used. A total of 0.4×10^4 (WST-1) or 1×10^4 (BrdU) wild-type and tPA-deficient fibroblasts were seeded in triplicate-hexaplicate, and after attachment they were serum-starved overnight. Serum-starved cells were counted (WST-1 seeding control) and alternatively incubated for 24 hours in serum-free medium supplemented with 1 mg/ml BSA, and 50 μM BrdU in the BrdU experiment, in the absence or presence of 50 ng/ml activated PDGF-CC or tPA protein (#116, American Diagnostica Inc.). Upon counting, WST-1 reagent was added and measured according to the manufacturer's protocol using an ELISA reader. […] Quantification of the BrdU-positive cells was performed by counting all cells along the vertical and horizontal diameters of all wells.

[3] = system: wild-type and tPA-deficient fibroblasts; test: BrdU incorporation in primary fibroblasts; format: cell-based, mouse; settings: 50 ng/ml, 24 hours BrdU labeling
Description: Cell nuclei were visualized with 4′,6-diamidine-2′-phenylindole dihydrochloride (DAPI), and BrdU-labeled cells were determined by immunofluorescence using antibodies to BrdU (FIG. 7B).
as §1, with “reader. In the BrdU experiment, the cells were fixed in 4% paraformaldehyde in PBS for 30 min at room temperature and the DNA was denatured in 2M HCl for 20 min at room temperature and then blocked in 0.5% BSA, 0.5% Tween, and 10% goat serum in PBS.” for “reader.”

tPA: tissue plasminogen activator, secreted serine protease; expressed, purified from human melanoma cells or recombinant
cleavage and activation of latent PDGF-DD by the coexpressed protease [1]: neither of the two enzymes was able to cleave and activate latent PDGF-DD | rescue of growth of tPA-deficient fibroblasts [2]: allowed the cells to grow similar to the wild-type fibroblasts | BrdU incorporation in tPA-deficient cells ([3]; serum-starved tPA-deficient fibroblasts): strongly stimulated BrdU incorporation in the tPA-deficient cells | BrdU incorporation in wild-type cells ([3]; serum-starved wild-type fibroblasts): had less effect on wild-type cells
